From patent US20250179059A1 (The Regents of the University of California, priority 2021, published 2025)
pIC50: −log10 of the molar value. Read-outs that look alike come from different tables or passages of the source.

Columns and labels:
[1] = target: T1, human BRD4 bromodomain II (Homo sapiens, UniProt O60885); test: Bromodomain binding assay (AlphaScreen), BRD4 BDII
T1 construct: human BRD4 bromodomain II [based on Genbank NM_058243, residues 349-460]; host or cells: E. coli
Method in brief: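 AlphaScreen competition: His6-BRD4 BDI (aa 44-170) or BDII (aa 349-460) vs biotin-H4(1-21) K5/K8/K12/K16Ac peptide; Ni-chelate acceptor/streptavidin donor beads. HEPES pH 7.5, NaCl, CHAPS, BSA, 1% DMSO; RT. 10-pt 3-fold titration, % peptide binding fitted → IC50.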

[2] = test system: human SKM-1 acute myeloid leukemia cells; test: SKM-1 antiproliferation cell-based assay (ATPlite); conditions: Homo sapiens
Method in brief: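 Log-phase cells in RPMI 1640/15% FBS were seeded at 34722 cells/mL and exposed for 4 days to nine-concentration DMSO serial dilutions in triplicate. Viability was read as ATP luminescence (ATPlite 1step), and IC50 values came from variable-slope non-linear regression.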

[3] = AlphaScreen assay, Table C2, read-out: BRD4 BDII IC50
[4] = SKM-1, 96 h, SKM-1 antiproliferation assay, 4 days, Table C2
[5] = BRD4 BDII AlphaScreen assay, read-out: BRD4 BD2 IC50
[6] = SKM-1, SKM-1 antiproliferation assay

| Structure (SMILES) | pIC50 [1, 3] | GI50 [2, 4] [nM] | pIC50 [1, 5] | GI50 [2, 6] [nM] |
| --- | --- | --- | --- | --- |
| CC(=O)NCc1ncc(-c2cc(F)cc(-c3ccc(N4CCN(C)C4=O)c(Cl)c3)c2O)cc1N1CCNCC1 [Example 370, N-((5-(3′-chloro-5-fluoro-2-hydroxy-4′-(3-methyl-2-oxoimidazolidin-1-yl)-[1,1′-biphenyl]-3-yl)-3-(piperazin-1-yl)pyridin-2-yl)methyl)acetamide] | 8.00 to 9.00 | 30 to 300 | – | – |
| O=c1[nH]c2ccc(-c3cc(F)cc(-c4ccnc(N5CCNCC5)c4)c3O)cc2[nH]1 [Example 431, 5-(5-fluoro-2-hydroxy-3-(2-(piperazin-1-yl)pyridin-4-yl)phenyl)-1H-benzo[d]imidazol-2(3H)-one] | < 7.00 | ≥ 3000 | – | – |
| CCc1ncc(-c2cc(F)cc(-c3ccc(-n4ccn(C)c4=O)c(Cl)c3)c2O)cc1N1CCN(C(C)(C)C)CC1 [Example 848, 1-(3′-(5-(4-(tert-butyl)piperazin-1-yl)-6-ethylpyridin-3-yl)-3-chloro-5′-fluoro-2′-hydroxy-[1,1′-biphenyl]-4-yl)-3-methyl-1H-imidazol-2(3H)-one] | 7.00 to 8.00 | 0.3 to 30 | – | – |
| Cc1cc(-c2cncc(N3CCN[C@H](C)C3)c2)c(O)c(-c2ccc(-n3ccn(C)c3=O)c(F)c2)c1 [Example 545, (R)-1-(3-fluoro-2′-hydroxy-5′-methyl-3′-(5-(3-methylpiperazin-1-yl)pyridin-3-yl)-[1,1′-biphenyl]-4-yl)-3-methyl-1H-imidazol-2(3H)-one] | 9.00 to 11.00 | 0.3 to 30 | – | – |
| Cc1cc(-c2ccc(-n3ccn(C)c3=O)c(Cl)c2)c(O)c(-c2cnc(N(C)C)c(N3CCC4(CCN4C(C)C)C3)c2)n1 (stereo not shown) [Example 990, 1-(2-chloro-4-(6′-(dimethylamino)-3-hydroxy-5′-(1-isopropyl-1,6-diazaspiro[3.4]octan-6-yl)-6-methyl-[2,3′-bipyridin]-4-yl)phenyl)-3-methyl-1H-imidazol-2(3H)-one] | – | – | 8.00 to 9.00 | 0.3 to 30 |
| Cc1cc(-c2ccc(-n3ccn(C)c3=O)c(Cl)c2)c(O)c(-c2cc(F)c(F)c(N3CCN(C(C)(C)C)CC3)c2)n1 [Example 1026, 1-(4-(2-(3-(4-(tert-butyl)piperazin-1-yl)-4,5-difluorophenyl)-3-hydroxy-6-methylpyridin-4-yl)-2-chlorophenyl)-3-methyl-1H-imidazol-2(3H)-one] | – | – | 9.00 to 11.00 | 0.3 to 30 |
| [2H]C([2H])([2H])n1ccn(-c2ccc(-c3cc(F)cc(-c4cccc(N5CCN(C(C)(C)C)CC5)c4)c3O)cc2Cl)c1=O [Example 886] | – | – | 8.00 to 9.00 | 0.3 to 30 |
| Cn1ccn(-c2ccc(-c3cc(F)cc(-c4ccnc(N5CCNCCC5=O)c4)c3O)cc2Cl)c1=O [Example 665, 4-(4-(3′-chloro-5-fluoro-2-hydroxy-4′-(3-methyl-2-oxo-2,3-dihydro-1H-imidazol-1-yl)-[1,1′-biphenyl]-3-yl)pyridin-2-yl)-1,4-diazepan-5-one] | 9.00 to 11.00 | 30 to 300 | – | – |
| CC(C)N1CCCC12CCN(c1cc(-c3cc(F)cc(-c4ccc(-n5ccn(C)c5=O)c(Cl)c4)c3O)cnc1N)C2 (stereo not shown) [Example 968, 1-(3′-(6-amino-5-(1-isopropyl-1,7-diazaspiro[4.4]nonan-7-yl)pyridin-3-yl)-3-chloro-5′-fluoro-2′-hydroxy-[1,1′biphenyl]-4-yl)-3-methyl-1H-imidazol-2(3H)-one] | – | – | 8.00 to 9.00 | 0.3 to 30 |
| C[C@@H]1CN(c2cc(-c3cc(F)cc(-c4ccc(-n5ccn(C)c5=O)c(Cl)c4)c3O)cc3cccnc23)CCN1 [Example 591, (R)-1-(3-chloro-5′-fluoro-2′-hydroxy-3′-(8-(3-methylpiperazin-1-yl)quinolin-6-yl)-[1,1′-biphenyl]-4-yl)-3-methyl-1H-imidazol-2(3H)-one] | 9.00 to 11.00 | 0.3 to 30 | – | – |
| CN1CCN(c2ccc(-c3cccc(-c4cc(CO)cc(N5CCNCC5)c4)c3O)cc2Cl)C1=O [Example 355, 1-(3-chloro-2′-hydroxy-3″-(hydroxymethyl)-5″-(piperazin-1-yl)-[1,1′:3′,1″-terphenyl]-4-yl)-3-methylimidazolidin-2-one] | 8.00 to 9.00 | 30 to 300 | – | – |
| Cn1ccn(-c2ccc(-c3cc(F)cc(-c4ccnc(N5CCC(C)(C(=O)O)C5)c4)c3O)cc2Cl)c1=O (stereo not shown) [Example 769, 1-(4-(3′-chloro-5-fluoro-2-hydroxy-4′-(3-methyl-2-oxo-2,3-dihydro-1H-imidazol-1-yl)-[1,1′-biphenyl]-3-yl)pyridin-2-yl)-3-methylpyrrolidine-3-carboxylic acid] | 8.00 to 9.00 | 300 to 3000 | – | – |
| Cn1ccn(-c2ccc(-c3cc(F)cc(-c4ccnc(N5C[C@@H](N)[C@H](O)C5)c4)c3O)cc2Cl)c1=O [Example 490, 1-(3′-(2-((3R,4R)-3-amino-4-hydroxypyrrolidin-1-yl)pyridin-4-yl)-3-chloro-5′-fluoro-2′-hydroxy-[1,1′-biphenyl]-4-yl)-3-methyl-1H-imidazol-2(3H)-one] | 9.00 to 11.00 | 0.3 to 30 | – | – |
| CN[C@H]1CCCN(c2cc(-c3cc(F)cc(-c4ccc(N5CCN(C)C5=O)c(Cl)c4)c3O)ccn2)C1 [Example 450] | 8.00 to 9.00 | 30 to 300 | – | – |
| Cc1cc(-c2ccc(-n3ccn(C)c3=O)c(Cl)c2)c(O)c(-c2cc(N3CCN[C@H](C)C3)c3nccnc3c2)c1 [Example 574] | 9.00 to 11.00 | 0.3 to 30 | – | – |
| CC(=O)NC1(C)CCN(c2cc(-c3cc(F)cc(-c4ccc(-n5ccn(C)c5=O)c(Cl)c4)c3O)ccn2)CC1 [Example 790, N-(1-(4-(3′-chloro-5-fluoro-2-hydroxy-4′-(3-methyl-2-oxo-2,3-dihydro-1H-imidazol-1-yl)-[1,1′-biphenyl]-3-yl)pyridin-2-yl)-4-methylpiperidin-4-yl)acetamide] | 9.00 to 11.00 | 0.3 to 30 | – | – |
| COc1ncc(-c2cc(F)cc(-c3ccc(-n4ccn(C)c4=O)c(Cl)c3)c2O)cc1N1CCN(C(C)(C)C2CC2)CC1 [Example 847, 1-(3-chloro-3′-(5-(4-(2-cyclopropylpropan-2-yl)piperazin-1-yl)-6-methoxypyridin-3-yl)-5′-fluoro-2′-hydroxy-[1,1′-biphenyl]-4-yl)-3-methyl-1H-imidazol-2(3H)-one] | 8.00 to 9.00 | 0.3 to 30 | – | – |
| O=C1CCC(=O)N1c1ccc(-c2cccc(-c3cncc(N4CCNCC4)c3)c2O)cc1F [Example 257, 1-(3-fluoro-2′-hydroxy-3′-(5-(piperazin-1-yl)pyridin-3-yl)-[1,1′-biphenyl]-4-yl)pyrrolidine-2,5-dione] | < 7.00 | ≥ 3000 | – | – |
| Cn1ccn(-c2ccc(-c3cc(F)cc(-c4ccnc(N5CCC(N6CCC(F)CC6)C5)c4)c3O)cc2Cl)c1=O (stereo not shown) [Example 701, 1-(3-chloro-5′-fluoro-3′-(2-(3-(4-fluoropiperidin-1-yl)pyrrolidin-1-yl)pyridin-4-yl)-2′-hydroxy-[1,1′-biphenyl]-4-yl)-3-methyl-1H-imidazol-2(3H)-one] | 9.00 to 11.00 | 30 to 300 | – | – |
| Cn1ccn(-c2ccc(-c3cc(F)cc(-c4cc(N5CCN(C(C)(C)C)CC5)no4)c3O)cc2Cl)c1=O [Example 905, 1-(3′-(3-(4-(tert-butyl)piperazin-1-yl)isoxazol-5-yl)-3-chloro-5′-fluoro-2′-hydroxy-[1,1′-biphenyl]-4-yl)-3-methyl-1H-imidazol-2(3H)-one] | – | – | 8.00 to 9.00 | 30 to 300 |
| Cn1ccn(-c2ccc(-c3cc(F)cc(-c4ccnc(N5CC(C)(C)C(C)(O)C5)c4)c3O)cc2Cl)c1=O (stereo not shown) [Example 783, 1-(3-chloro-5′-fluoro-2′-hydroxy-3′-(2-(3-hydroxy-3,4,4-trimethylpyrrolidin-1-yl)pyridin-4-yl)-[1,1′-biphenyl]-4-yl)-3-methyl-1H-imidazol-2(3H)-one] | 9.00 to 11.00 | 0.3 to 30 | – | – |
| COCCCN1CCN(c2cc(-c3cc(F)cc(-c4ccc(-n5ccn(C)c5=O)c(Cl)c4)c3O)ccn2)CC1 [Example 633, 1-(3-chloro-5′-fluoro-2′-hydroxy-3′-(2-(4-(3-methoxypropyl)piperazin-1-yl)pyridin-4-yl)-[1,1′-biphenyl]-4-yl)-3-methyl-1H-imidazol-2(3H)-one] | 9.00 to 11.00 | 0.3 to 30 | – | – |
| CN[C@H]1CCN(c2cc(-c3cc(F)cc(-c4ccc(-n5ccn(C)c5=O)c(Cl)c4)c3O)cc3[nH]ncc23)C1 [Example 583] | 8.00 to 9.00 | 0.3 to 30 | – | – |
| CC(=O)Nc1ccc(-c2cccc(-c3cc(OCCN)nc(N4CCNCC4)c3)c2O)cc1F [Example 302, N-(3′-(2-(2-aminoethoxy)-6-(piperazin-l-yl)pyridin-4-yl)-3-fluoro-2′-hydroxy-[1,1′-biphenyl]-4-yl)acetamide] | 7.00 to 8.00 | 300 to 3000 | – | – |
| C[C@@H]1CN(c2cncc(-c3cccc(-c4ccc(N5CCCC5=O)c(F)c4)c3O)c2)CCN1 [Example 264, (R)-1-(3-fluoro-2′-hydroxy-3′-(5-(3-methylpiperazin-1-yl)pyridin-3-yl)-[1,1′-biphenyl]-4-yl)pyrrolidin-2-one] | 8.00 to 9.00 | 30 to 300 | – | – |
| Cn1ccn(-c2ccc(-c3cc(F)cc(-c4cncc(N5CCC(C)(O)C5)c4)c3O)cc2Cl)c1=O (stereo not shown) [Example 708, 1-(3-chloro-5′-fluoro-2′-hydroxy-3′-(5-(3-hydroxy-3-methylpyrrolidin-1-yl)pyridin-3-yl)-[1,1′-biphenyl]-4-yl)-3-methyl-1H-imidazol-2(3H)-one] | 9.00 to 11.00 | 0.3 to 30 | – | – |
